Drawing on patent US9670203B2 (BeiGene, LTD., priority 2013, dated 2017), this text covers IC50 and EC50 for 18 compounds.

Assay [1] has as its target B-Raf (V600E) (Homo sapiens (Human), UniProt P15056, V600E). The assay is described as follows: Raf IC50 assay, time-resolved fluorescence energy transfer, B-Raf (V600E). It is filed as biochemical. The note with it: 0.1 mM ATP; read-out: IC50 (nM) B_Raf^V600E.
In assay [2] the test system is A375. Nature of the assay: Anti-proliferative activity EC50 assay (CellTiter-Glo) in A375. It is filed as cell-based. Particulars: Homo sapiens, A-375, 72 h; 3-day exposure; read-out: Cell Proliferation EC50 (nM) A375. As to the method:
The growth-inhibitory activity of compounds in A375 and p61-A375, was determined using CellTiter-Glo luminescent cell viability assay (Promega). The 2,000 cells were seeded per well of a 96-well plate to ensure logarithmic growth could occur over the 3 days treatment period. Cells were left to attach for 16 hours, cells were treated in duplicate with a 10-point dilution series. Following a 3-day exposure to compounds disclosed herein, a volume of CellTiter-Glo reagent equal to the volume of cell culture medium present in each well was added. Mixture was mixed on an orbital shaker for 2 minutes to allow cell lysis, followed by 10 minutes incubation at room temperature to allow stabilization of luminescent signal, which corresponded to quantitation of ATP and thus the quantitation of metabolically active cells. Luminescent signal was measured using Pherastar FS reader (BMG Labtech).
EC50 values for growth inhibition were calculated by fitting dose-dependent data to the four-parameter logistic model using GraphPad Prism software.

Molecules are shown by their SMILES.

Usually IC50 stands for the concentration at which inhibition is half-maximal.

Chain of B-Raf (V600E) (P15056 whole entry V600E): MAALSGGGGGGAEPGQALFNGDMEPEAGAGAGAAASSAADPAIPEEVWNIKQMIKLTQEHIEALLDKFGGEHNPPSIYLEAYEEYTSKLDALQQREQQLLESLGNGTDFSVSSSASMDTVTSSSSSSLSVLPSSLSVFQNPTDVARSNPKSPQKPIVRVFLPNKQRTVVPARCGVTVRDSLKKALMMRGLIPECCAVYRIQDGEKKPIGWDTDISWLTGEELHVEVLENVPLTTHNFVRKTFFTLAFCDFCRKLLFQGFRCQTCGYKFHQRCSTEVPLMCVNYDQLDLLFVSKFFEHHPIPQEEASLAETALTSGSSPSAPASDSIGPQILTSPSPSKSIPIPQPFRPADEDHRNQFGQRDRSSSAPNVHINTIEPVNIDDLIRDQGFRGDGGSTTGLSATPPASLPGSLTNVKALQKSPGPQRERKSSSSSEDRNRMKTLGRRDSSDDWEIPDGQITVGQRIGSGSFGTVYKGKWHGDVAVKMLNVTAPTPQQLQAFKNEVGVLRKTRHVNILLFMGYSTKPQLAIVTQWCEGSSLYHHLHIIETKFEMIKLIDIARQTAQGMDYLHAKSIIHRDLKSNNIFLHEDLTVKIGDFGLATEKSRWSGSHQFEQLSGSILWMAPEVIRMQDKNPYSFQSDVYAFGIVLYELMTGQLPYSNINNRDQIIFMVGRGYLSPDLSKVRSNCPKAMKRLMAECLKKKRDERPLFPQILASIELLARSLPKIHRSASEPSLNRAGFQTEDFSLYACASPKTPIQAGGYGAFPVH

Regarding `Cc1cccc(Cl)c1NC(=O)N[C@@H]1[C@H]2Oc3ccc(Oc4ccnc5c4CCC(=O)N5)cc3[C@@H]12` [Compound 1.19], the concentration for half-maximal inhibition (IC50) in assay [1] was 5.1 nM. In addition, the EC50 in assay [2] turned out to be 503 nM.

`O=C1CCc2c(Oc3ccc4c(c3)[C@H]3[C@H](NC(=O)Nc5ccc(C(F)(F)F)cc5)[C@H]3O4)ccnc2N1` [Compound 1.29]: the IC50 in assay [1] amounted to 6.9 nM. The EC50 in assay [2] was 222 nM.

For the compound `O=C1CCc2c(Oc3ccc4c(c3)[C@H]3[C@H](NC(=O)Nc5ccccc5C(F)(F)F)[C@H]3O4)ccnc2N1` [Compound 1.30], the IC50 in assay [1] is 3 nM. The EC50 in assay [2] stood at 583 nM.

Consider `O=C1CCc2c(Oc3ccc4c(c3)[C@H]3[C@H](NC(=O)NC5CCCC5)[C@H]3O4)ccnc2N1` [Compound 1.51], for which, in assay [1], the 50% inhibitory concentration (IC50) stood at 0.59 nM. In assay [2], the EC50 is 273 nM.

For `O=C1CCc2c(Oc3ccc4c(c3)[C@H]3[C@H](NC(=O)NCc5cccc(C(F)(F)F)c5)[C@H]3O4)ccnc2N1` [Compound 1.54], the half-maximal inhibitory concentration (IC50) in assay [1] was 1.9 nM. Besides, the EC50 in assay [2] was 2700 nM.

As to `O=C1CCc2c(Oc3ccc4c(c3)[C@H]3[C@H](NC(=O)NCc5cccc(F)c5)[C@H]3O4)ccnc2N1` [Compound 1.58], the IC50 in assay [1] was found to be 0.77 nM. Moreover, the EC50 in assay [2] came to 534 nM.

With `O=C1CCc2c(Oc3ccc4c(c3)[C@H]3[C@H](NC(=O)NCc5ccc(F)cc5)[C@H]3O4)ccnc2N1` [Compound 1.59], the 50% inhibitory concentration (IC50) in assay [1] turned out to be 0.84 nM. Also, the EC50 in assay [2] was found to be 891 nM.

Take `O=C1CCc2c(Oc3ccc4c(c3)[C@H]3[C@H](NC(=O)Nc5cccc(OC(F)(F)F)c5)[C@H]3O4)ccnc2N1` [Compound 1.60]: the IC50 in assay [1] worked out at 8.6 nM. In assay [2], the EC50 turned out to be 193 nM.

On to `O=C1CCc2c(Oc3ccc4c(c3)[C@H]3[C@H](NC(=O)Nc5ccc(OC(F)(F)F)cc5)[C@H]3O4)ccnc2N1` [Compound 1.61], for which the IC50 in assay [1] is 7.4 nM. In assay [2], the EC50 is 975 nM.

For `O=C1CCc2c(Oc3ccc4c(c3)[C@H]3[C@H](NC(=O)Nc5ccccc5OC(F)(F)F)[C@H]3O4)ccnc2N1` [Compound 1.62], the IC50 in assay [1] is 6.3 nM. In addition, in assay [2], the EC50 came out at 302 nM.

With `O=C1CCc2c(Oc3ccc4c(c3)[C@H]3[C@H](NC(=O)NC5CCOCC5)[C@H]3O4)ccnc2N1` [Compound 1.67], the IC50 in assay [1] was determined as 4.2 nM. Besides, the EC50 in assay [2] was 4170 nM.

As for `O=C1CCc2c(Oc3ccc4c(c3)[C@H]3C(NC(=O)NCc5ccc(F)cc5C(F)(F)F)[C@H]3O4)ccnc2N1` (stereo partly drawn) [Compound 1.76], the IC50 in assay [1] came out at 3.4 nM. Further, the EC50 in assay [2] came to 1310 nM.

Regarding `CC(C)(C)NC(=O)N[C@@H]1[C@H]2Oc3ccc(Oc4ccnc5c4CCC(=O)N5)cc3[C@@H]12` [Compound 1.77], in assay [1], the half-inhibitory concentration (IC50) was 4.5 nM. In addition, the EC50 in assay [2] came out at 4540 nM.

On to `CCCCCCNC(=O)N[C@@H]1[C@H]2Oc3ccc(Oc4ccnc5c4CCC(=O)N5)cc3[C@@H]12` [Compound 1.78], for which the IC50 in assay [1] was 0.72 nM. Besides, the EC50 in assay [2] worked out at 1900 nM.

In the case of `O=C1CCc2c(Oc3ccc4c(c3)[C@H]3[C@H](NC(=O)N[C@H]5CCc6ccccc65)[C@H]3O4)ccnc2N1` [Compound 1.81], the 50% inhibitory concentration (IC50) in assay [1] was found to be 2.7 nM. Moreover, in assay [2], the EC50 was determined as 159 nM.

For `O=C1CCc2c(Oc3ccc4c(c3)[C@H]3[C@H](NC(=O)N[C@@H]5CCc6ccccc65)[C@H]3O4)ccnc2N1` [Compound 1.82], the concentration for half-maximal inhibition (IC50) in assay [1] stood at 2.4 nM. For the same compound, in assay [2], the EC50 is 867 nM.

`CC(C)(C)CNC(=O)N[C@@H]1[C@H]2Oc3ccc(Oc4ccnc5c4CCC(=O)N5)cc3[C@@H]12` [Compound 1.83]: the IC50 in assay [1] was 3 nM. In addition, the EC50 in assay [2] was determined as 291 nM.

Take `CCCCCCCCNC(=O)N[C@@H]1[C@H]2Oc3ccc(Oc4ccnc5c4CCC(=O)N5)cc3[C@@H]12` [Compound 1.84]: the IC50 in assay [1] was determined as 12 nM. The EC50 in assay [2] turned out to be 4330 nM.
